The numbers were not newly measured in US6855351B2, “Pesticide formulation containing azadirachtin (not less than 300 ppm) and salanin in a formulated product with neem oil” (T. Stanes and Company Limited, priority 2002, dated 2005), which cites them from elsewhere.

For this series, the system named is mammals. The conditions noted are these: in vivo.

Turning to `C/C=C(\C)C(=O)O[C@H]1C[C@@H](OC(C)=O)[C@@]2(C(=O)OC)CO[C@H]3[C@@H](O)[C@@](C)([C@]45O[C@@]4(C)[C@H]4C[C@@H]5O[C@@H]5OC=C[C@@]54O)[C@H]4[C@]1(CO[C@]4(O)C(=O)OC)[C@@H]32` [Azadirachtin], the mammalian toxicity entry was “no apparent mammalian toxicity”.
